Measured values published in publication PMC11903455 (Frontiers in Pharmacology, 2025).
Structures can show the parent of a compound that is named as a salt. Where two headings read alike, the source gives them in different places. Blank lines part the entries; values can stand above or below the molecule they belong to.

Columns and labels:
noradrenaline (NA) = experiment: ELISA of brain tissue: NA; format: in vivo, rat
Experimental: (§1) Anxiety-like depression rat model is induced by chronic induction of corticosterone. Five-week-old SD male rats (8/cage) randomly received 0.45% soluble Corticosterone suspension in β-cyclodextrin. The number of rats in each group has been supplemented in part 1.2 of the manuscript method. Specifically described as “The rats were randomly divided into 7 groups, 8 rats in each group, a total of 56 rats. […] The model was established by subcutaneous injection of corticosterone (20 mg⋅kg^−1) for 21 consecutive days. […] The control group and model group were given the same volume of normal saline. Solution preparation methods are described in Supplementary Material S1.1.
(§2) The contents of Serotonin transporter (5-HTT, JW.RA1057), dopamine (DA, JW.RA1621), γ-aminobutyric acid (GABA, JW.RA1389) and noradrenaline (NA, JW.RA2154) in the hippocampus were measured by ELISA kit. The tissue samples were added to PBS low-temperature homogenate according to 1:10, and the homogenate was centrifuged at 10,000 rpm at 4 °C […] for 10 min. The supernatant was taken to detect the content of the sample.

dopamine (DA) = experiment: ELISA of brain tissue: DA; format: in vivo, rat; details: for brain DA compared with the control group: crocin I high-dose group, positive drug group
Experimental: as §1, §2

Caco-2 cells = details: no method or reference given; cited from earlier work
hippocampal neurons = experiment: Nissl staining of hippocampus (DG, CA1, CA3); format: in vivo, rat; details: for neuronal cell damage in the dentate gyrus region: after administration, corticosterone model rats; for number of Nissl bodies, hippocampal CA3: crocin I low, medium, high dose, positive drug 5 mg/kg; for number of Nissl bodies, hippocampal CA1: high dose crocin I (9 mg/kg), positive control drug 5 mg/kg
From the text: (§3) Anxiety-like depression rat model is induced by chronic induction of corticosterone. Five-week-old SD male rats (8/cage) randomly received 0.45% soluble Corticosterone suspension in β-cyclodextrin. The number of rats in each group has been supplemented in part 1.2 of the manuscript method. Specifically described as “The rats were randomly divided into 7 groups, 8 rats in each group, a total of 56 rats. The number of groups were model group, blank control group, positive drug group, low, middle, and high dose of Crocin I group, and gardenia extract group respectively. The model was established by subcutaneous injection of corticosterone (20 mg⋅kg^−1) for 21 consecutive days. […] The control group and model group were given the same volume of normal saline. Solution preparation methods are described in Supplementary Material S1.1.
(§4) The rats were deeply anesthetized with 2% sodium pentobarbital. After 15 min, the rats heart were perfused and fixed with normal saline and 4% paraformaldehyde, respectively. Then the brain tissues of rats in different groups were collected. The brain tissue was cryosectioned at a thickness of 3 μm, and then Nissl staining was performed to analyze the hippocampal region of interest. The staining process is detailed in Supplementary Material S1.4.
After the behavioral evaluation of the rats, the rats were anesthetized and decapitated to take the brain. The brain tissue was fixed with 4% paraformaldehyde for 24 hours. Rinse with normal saline to remove the residual fixative. Dehydration with 30% sucrose solution. It was embedded with an OTC embedding agent, and after it was completely frozen, the shape was trimmed and the sections were frozen. According to the localization map of rat brain sections, the target locations of the hippocampus and prefrontal cortex of rats were selected and sectioned continuously in the coronal plane with a thickness of 3 µm. Stick the slides with adhesive slides and bake the slides in an oven at 37 ℃ for half an hour. The slices were stained with methyl violet dye and rinsed with distilled water. Nissl Differentiation was used to differentiate for 5 s and most of the staining solution was removed. The slides were placed successively in different concentrations of ethanol and gradient dehydration (0%, 50%, 75%, and 95% ethanol, the section and background color should be observed under a microscope during dehydration). After dehydration, the sections were sealed with transparent and neutral gum in anhydrous ethanol Ⅰ, Ⅱ, anhydrous ethanol-xylene (1:1), xylene Ⅰ, and Ⅱ solution, respectively, and observed under a microscope.

[1] = tested on: rats with corticosterone-induced anxiety-like depression; experiment: Morris water maze test; format: in vivo, rat
From the text: Anxiety-like depression rat model is induced by chronic induction of corticosterone. Five-week-old SD male rats (8/cage) randomly received 0.45% soluble Corticosterone suspension in β-cyclodextrin. The number of rats in each group has been supplemented in part 1.2 of the manuscript method. Specifically described as “The rats were randomly divided into 7 groups, 8 rats in each group, a total of 56 rats. The number of groups were model group, blank control group, positive drug group, low, middle, and high dose of Crocin I group, and gardenia extract group respectively. The model was established by subcutaneous injection of corticosterone (20 mg⋅kg^−1) for 21 consecutive days. […] The control group and model group were given the same volume of normal saline. […]
(§5) After the model was established. […] Depression was assessed by the preference for sweet foods in healthy rats ([Tan et al., 2020]) Details were provided in the Additional file: SI 1.2-1.3.
The water maze round pool was divided into Ⅰ, Ⅱ, Ⅲ, and Ⅳ quadrants. […] The position was placed once along the Ⅰ, Ⅱ, Ⅲ, and Ⅳ quadrants respectively, and the time of finding the platform within 60 seconds was recorded. […] After 5 days, the platform was removed, the animals were put into the pool from the original platform, and the number of rats crossing the target quadrant within 60 seconds was recorded.

[2] = no reference given; cited from earlier work
[3] = tested on: rats with corticosterone-induced anxiety-like depression; experiment: Sucrose (sugar water) preference test; format: in vivo, rat; details: corticosterone model rats; crocin I 2.25, 4.5, 9 mg/kg intragastric
From the text: as §3, §5
1% sucrose aqueous solution was used in the experiment. […] On the day of the test, two bottles containing the same volume of 1% sucrose solution and ordinary water were put into cages, weighed before and after drinking water, and the liquid consumption in the two bottles within 24 hours was calculated.

[4] = tested on: γ-aminobutyric acid (GABA); experiment: ELISA of brain tissue: GABA; format: in vivo, rat
Experimental: as §1, §2

[5] = tested on: Serotonin transporter (5-HTT); experiment: ELISA of brain tissue: 5-HTT; format: in vivo, rat
Experimental: as §1, §2

cortical neurons = experiment: Nissl staining of prefrontal cortex; format: in vivo, rat; details: crocin I low, medium, high doses; Gardenia extract 0.9 g/kg; positive drug 5 mg/kg
From the text: as §3, §4
After the behavioral evaluation of the rats, the rats were anesthetized and decapitated to take the brain. […]

[6] = Crocetin content of plasma sample by SERS and liquid phase determination; format: in vivo; details: SD, rat, oral, 4.5 mg kg^−1, 0.5 h medium-dose plasma
Experimental: The samples were analyzed by high performance liquid chromatography.
The treatment of plasma samples is described in Procedure 2.2.3. 50 uL of treated plasma was added into silver nanoparticle solution with an equal volume concentration of 10 mg/mL 50 uL mixed solution was placed on a round quartz sheet with a diameter of 1 cm, […] and the Raman spectrum was detected and recorded. Detection conditions: scanning time 3 s, laser power: 80 mW. Spectra are acquired by Optosky Raman microscopy software.
A standard curve was prepared based on the peak intensity of the characteristic peak at 1,532 cm^−1 and the content was determined, as shown in Figure 10C.

[7] = Stability of crocetin in plasma samples; format: in vitro ADME, rat; details: within one week at -20°C, n = 6
Experimental: The procedures for precision, stability, limit of quantitation, and sample recovery are described in the Supplementary Material S2.4 Methodological Investigations section.
Plasma samples were collected 30 minutes after administration (n=6). The stability of the samples was calculated within one week at -20°C.

[8] = gardenia extract 0.9 g/kg, positive drug paroxetine hydrochloride 5 mg/kg

Structure (SMILES): CC(/C=C/C=C(\C)C(=O)O[C@@H]1O[C@H](CO[C@@H]2O[C@H](CO)[C@@H](O)[C@H](O)[C@H]2O)[C@@H](O)[C@H](O)[C@H]1O)=C\C=C\C=C(C)\C=C\C=C(/C)C(=O)O[C@@H]1O[C@H](CO[C@@H]2O[C@H](CO)[C@@H](O)[C@H](O)[C@H]2O)[C@@H](O)[C@H](O)[C@H]1O [Crocin I, crocin I]
NA expression level in brain tissue (noradrenaline (NA); High dose crocin I 9 mg/kg): 5.60 ± 0.02 ng/mL | NA expression level in brain tissue (noradrenaline (NA); Low dose crocin I 2.25 mg/kg, control 3.78, model 8.08): 5.99 ± 0.02 ng/mL | NA expression level in brain tissue (noradrenaline (NA); Medium dose crocin I 4.5 mg/kg): 6.73 ± 0.18 ng/mL | DA expression level in brain tissue (dopamine (DA); High dose crocin I 9 mg/kg): 80.22 ± 2.64 nmol/L | DA expression level in brain tissue (dopamine (DA); Low dose crocin I 2.25 mg/kg, control 84.66, model 169.17): 147.33 ± 3.72 nmol/L | DA expression level in brain tissue (dopamine (DA); Medium dose crocin I 4.5 mg/kg): 137.22 ± 1.31 nmol/L | brain DA compared with the control group (dopamine (DA)): no significant difference | apparent permeability coefficient Papp (Caco-2 cells): low | neuronal cell damage in the dentate gyrus region (hippocampal neurons): significantly improved | dentate gyrus morphology (angle/shape) (hippocampal neurons; crocin I high dose 9 mg/kg): significant changes | dentate gyrus morphology (angle/shape) (hippocampal neurons; crocin I low dose 2.25 mg/kg): no significant change | number of Nissl bodies, hippocampal CA3 (hippocampal neurons; gardenia extract 0.9 g/kg): increased in a dependent manner | dentate gyrus morphology (angle/shape) (hippocampal neurons; crocin I middle dose 4.5 mg/kg): significant changes | number of Nissl bodies, hippocampal CA1 (hippocampal neurons; gardenia extract 0.9 g/kg): significantly increased | number of Nissl bodies, dentate gyrus (hippocampal neurons; high-dose crocin I (9 mg/kg), gardenia extract 0.9 g/kg): increased significantly | improvement of spatial memory ability ([1]; crocin I 2.25, 4.5, 9 mg/kg): dose-dependent | escape latency ([1]; crocin I low, middle and high dose groups (2.25, 4.5, 9 mg/kg)): decreased | oil-water partition coefficient (logP) [2]: −1.03 | sugar water preference [3]: dose-dependent | GABA expression level in brain tissue ([4]; High dose crocin I 9 mg/kg): 6.83 ± 0.29 µmol/L | GABA expression level in brain tissue ([4]; Low dose crocin I 2.25 mg/kg, control 7.43, model 4.99): 5.28 ± 0.21 µmol/L | GABA expression level in brain tissue ([4]; Medium dose crocin I 4.5 mg/kg): 5.49 ± 0.29 µmol/L | GABA content compared with the model group ([4]; crocin I low-dose group): no significant difference | 5-HTT expression level in brain tissue ([5]; High dose crocin I 9 mg/kg): 427.64 ± 7.00 ng/mL | 5-HTT expression level in brain tissue ([5]; Low dose crocin I 2.25 mg/kg, control 238.58, model 573.69): 374.76 ± 13.24 ng/mL | 5-HTT expression level in brain tissue ([5]; Medium dose crocin I 4.5 mg/kg): 459.21 ± 5.21 ng/mL | content of 5-HTT compared with the model group ([5]; crocin I low-, medium-, high-dose, gardenia extract, positive drug, P < 0.001): significantly reduced | number of Nissl bodies, prefrontal cortex (cortical neurons): increased

Structure (SMILES): Fc1ccc([C@@H]2CCNC[C@H]2COc2ccc3c(c2)OCO3)cc1 [Positive, paroxetine hydrochloride, reference compound]
NA expression level in brain tissue (noradrenaline (NA); [8]): 4.64 ± 0.09 ng/mL | brain DA compared with the control group (dopamine (DA)): no significant difference | DA expression level in brain tissue (dopamine (DA); [8]): 81.70 ± 1.94 nmol/L | neuronal cell damage in the dentate gyrus region (hippocampal neurons): significantly improved | number of Nissl bodies, hippocampal CA3 (hippocampal neurons; gardenia extract 0.9 g/kg): no significant increase | number of Nissl bodies, hippocampal CA1 (hippocampal neurons; gardenia extract 0.9 g/kg): significantly increased | GABA expression level in brain tissue [4, 8]: 7.34 ± 0.30 µmol/L | number of Nissl bodies, prefrontal cortex (cortical neurons): increase

concentration at 0.5 h ([6]; AgNPs, peak 1,532 cm^-1, read-out: crocetin content in plasma by SERS): 433 ng/mL | concentration at 0.5 h ([6]; same sample, read-out: crocetin content in plasma by liquid phase determination): 486 ng/mL | stability in plasma samples: Accuracy (RE, %) ([7]; High dose plasma sample 837.96 ng/mL): 99.64% | stability in plasma samples: Accuracy (RE, %) ([7]; Low dose plasma sample 292.60 ng/mL): 97.76% | stability in plasma samples: Accuracy (RE, %) ([7]; Medium dose plasma sample 527.32 ng/mL): 97.14%
Structure (SMILES): CC(/C=C/C=C(\C)C(=O)O)=C\C=C\C=C(C)\C=C\C=C(/C)C(=O)O [crocetin]
apparent permeability coefficient Papp (Caco-2 cells): high
